{
  "source": "BindingDB's records for doi:10.1021/jm00061a004",
  "about": "(1993)",
  "key": {"Cytochrome P450 2D6 [1]": {"biological_target": "T1, Cytochrome P450 2D6 (Homo sapiens, UniProt P10635)", "T1 sequence (P10635 whole entry)": "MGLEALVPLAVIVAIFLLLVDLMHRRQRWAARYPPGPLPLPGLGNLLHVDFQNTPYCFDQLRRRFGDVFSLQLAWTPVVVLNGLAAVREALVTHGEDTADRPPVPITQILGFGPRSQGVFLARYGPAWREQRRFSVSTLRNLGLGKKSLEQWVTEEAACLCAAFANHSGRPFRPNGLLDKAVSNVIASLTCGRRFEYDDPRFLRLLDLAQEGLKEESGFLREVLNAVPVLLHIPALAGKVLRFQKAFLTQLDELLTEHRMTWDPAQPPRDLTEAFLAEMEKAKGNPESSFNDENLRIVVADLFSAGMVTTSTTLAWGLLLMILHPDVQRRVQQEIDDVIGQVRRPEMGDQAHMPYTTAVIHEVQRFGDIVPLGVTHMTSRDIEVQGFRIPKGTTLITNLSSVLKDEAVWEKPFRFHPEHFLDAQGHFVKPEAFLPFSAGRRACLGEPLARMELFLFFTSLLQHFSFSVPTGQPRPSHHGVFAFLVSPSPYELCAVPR", "assay": "Inhibition of partially purified cytochrome P450 2D6 1'-hydroxybufuralol formation"}, "CYP2D6": {"biological_target": "CYP2D6 (Homo sapiens, UniProt P10635)", "sequence (P10635 whole entry)": "as above", "assay": "Apparent inhibitory constant (Ki) for Bufuralol 1'-hydroxylation by human liver microsomes", "details": "probe bufuralol (1'-hydroxylation)"}, "Cytochrome P450 2D6 [2]": {"biological_target": "T1, Cytochrome P450 2D6", "assay": "Inhibitory constant for cytochrome P450 2D6"}},
  "data": [
    {"smiles": "COC(=O)C1=CO[C@@H](C)[C@H]2CN3CCc4c([nH]c5ccccc45)[C@@H]3C[C@H]12", "values": [
      {"measurement": "Ki", "setting": "Cytochrome P450 2D6 [1]", "result": 5.7, "unit": "nM"},
      {"measurement": "Ki", "setting": "CYP2D6", "result": 4.6, "unit": "nM"},
      {"measurement": "Ki", "setting": "Cytochrome P450 2D6 [2]", "result": 3.3, "unit": "nM"}
    ]}
  ]
}
